Columns and labels:
[1] = test system: bleomycin-induced pulmonary fibrosis; assay: Lung resistance in bleomycin pulmonary fibrosis model; format: in vivo, mice; settings: 3-CP 150 mg/kg daily intranasal, 14 days, 64 mg/ml methacholine, FIG. 17
Experimental: One day after the final challenge, respiratory activity and airway hyper-responsiveness (AHR) of experimental animals were evaluated. Whole body plethysmographs for enhanced pause (Penh) measurements are often used for assessment of AHR. However, critics have questioned the validity of Penh measurements, which supposedly measure airway obstruction of live non-sedated mice, stating that it is likely to measure the distress of the animal rather than actual obstruction. […] In brief, mice were sedated with an intraperitoneal (IP) injection of xylazine hydrochloride and anaesthetized with IP injection of pentobarbital. Subsequently, the animals were tracheostomized using an 18 gauge cannula, ventilated with a FlexiVent™ apparatus (SCIREQ), and muscle paralysis was induced with pancuronium bromide. The mice were ventilated in a quasi-sinusoidal fashion with the following settings: a tidal volume of 10 ml/kg, maximum inflation pressure of […] (30 cm H2O), a positive end expiratory pressure (PEEP) of 3 millibar and a frequency of 150 per minute. […] Airway hyper-responsiveness (AHR) was determined by aerosolizing increasing concentrations of methacholine. […]
The effect of 3-CP on bleomycin-induced inflammation was evaluated by determining lung resistance, total inflammatory cell count, and TGF-β1 levels, according to procedures described hereinabove.

[2] = test system: mice with OVA-induced chronic asthma; assay: Inflammatory cell counts in BAL fluid, severe (chronic) asthma model; format: in vivo
Experimental: In a longer (chronic) murine model, mice were challenged 3 times a week for 4-5 weeks.
Bronchoalveolar lavage (BAL) fluid (also referred to herein as “BALf”) and bronchial submucosal inflammation are characteristic features of asthma. Mice were euthanized with an overdose of 50 mg/kg pentobarbital and ice-cold phosphate buffer saline (PBS) (0.6 ml) was instilled into the lungs. BAL fluid was obtained by three aspirations via tracheal cannulation, centrifuged, and the supernatant collected and stored at −70° C. Cell pellets were re-suspended in PBS and 100 μl aliquots placed onto slides and centrifuged (200 g, 4° C., 10 minutes) in a cytospin machine. Induction of oxidative stress was evaluated using a 2′,7′-dichlorofluorescein fluorescence assay, and total IgE, IgG2a, panel of cytokines, transforming growth factors, collagen, protein nitration and lipid peroxidation were measured using commercial kits according to the manufacturer's recommendations. […]
3-CP was administered orally (1 weight percent in chow) during the entire experiment, and dexamethasone (Dex) was administered via IP injection (1 mg/kg) one hour before each challenge. Inflammatory cell counts and pulmonary collagen content were then evaluated according to procedures described hereinabove, in order to assess effects on inflammation and remodeling, respectively.

[3] = Nitroxide concentration measurement by EPR in mouse blood and tissue; format: in vivo; settings: mice
Experimental: Electron paramagnetic resonance (EPR) spectroscopy was used to determine residual levels of nitroxide in mouse tissue. Blood samples or tissue samples were diluted with 0.5 ml phosphate buffer (40 mM, pH 7.4) or water, inserted into a flexible capillary placed in a quartz tube installed within the EPR spectrometer cavity and assayed for residual nitroxide. A similar procedure was used to determine the residual nitroxide in tissue homogenates of various organs, which were corrected for blood contamination spectrophotometrically by following the absorption of oxyhemoglobin at 400-600 nm. Measured EPR signals were compared to those of a nitroxide standard solution.
In order to determine total hydroxylamine and nitroxide concentrations, 2 mM K3Fe(CN)6 was added to samples in order to oxidize hydroxylamines to the respective nitroxide, and the nitroxide level was determined by EPR spectroscopy as described hereinabove.
Control and experimental groups contained 10 mice each. The effects of the nitroxides were investigated by feeding the mice ad libitum a diet of nitroxide-containing chow (1 weight percent) during both ovalbumin (OVA)-induced sensitization and challenging periods (days −2-19), during the sensitization period (days −2-11) or challenge period (days 13-19). Nitroxide-containing chow were prepared by dissolving 500 grams chow in a minimum volume of water containing 5 grams nitroxide and 5 grams commercial chicken soup powder, preparing the chow and drying it at 37° C. (animals were reluctant to eat nitroxide-containing chow until chicken soup powder was added).
3-CP was also administered using 3 daily intraperitoneal (IP) injections (200 μl, 0.15 M, ˜300 mg/kg) 0.5 hour prior to the challenge with OVA aerosol, or by nasal instillation (50 μl, 0.3 M, ˜150 mg/kg) twice a day 0.5 hour prior to the challenge with OVA aerosol and 6 hours later without exceeding its maximally tolerated dose, which has been previously established to be 300-500 mg/kg. Both 3-CP and TPL were non-toxic when administered orally or via IP injection to untreated OVA-challenged mice for 22 days.

[4] = nasal instillation (50 μL, 0.3 M), FIG. 2
[5] = oral administration (1 weight percent nitroxide in chow), FIG. 1
[6] = stated after the oral administration data

CC1(C)CC(C(N)=O)C(C)(C)N1[O] (centres unmarked) [3-CP, 3-Carbamoyl-2,2,5,5-tetramethyl-pyrrolidin-1-oxyl]
effect on bleomycin-induced increase in lung resistance [1]: completely reversed
effect on inflammatory cell counts in BAL fluid ([2]; 3-CP oral 1 weight percent in chow during entire experiment, 4 weeks OVA challenge, FIGS. 15A and 15B): reduced inflammatory cell counts, and especially eosinophil counts
reducing BAL inflammatory cell counts, 3-CP compared with dexamethasone ([2]; 3-CP oral, dexamethasone 1 mg/kg IP before each challenge): at least as effective as dexamethasone
residual concentration of the respective hydroxylamine compared with the nitroxide ([3]; data not shown): higher than those of the therapeutically active nitroxide free radical
absolute concentration in lung tissue relative to blood [3, 4]: about twice the concentration in the blood
half-life of reduction/clearance from blood and lung tissue [3, 4]: about 80 minutes
time course of residual concentration in blood and lung tissue [3, 4]: decreased exponentially with time
blood concentration, 3-CP compared with TPL [3, 5]: higher than TPL blood concentrations
residual concentration of nitroxide in blood [3, 5]: detectable levels
residual concentration in the lungs compared with other organs [3, 6]: significantly higher than in the heart, spleen, liver, kidney and brain
residual concentration in the lungs relative to that in the blood [3, 6]: about 65%
